Patent publication US12630547B2, “RAS protein degraders, pharmaceutical compositions thereof, and their therapeutic applications” (BioTheryX, Inc., priority 2019, dated 2026)

Legend:
Format in all cases: cell-based
H358 cells = test: Cell viability assay (CELLTITER-GLO), H358 cells; settings: Table 4; 3 days
Method in brief: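 Luminescent ATP read-out (CellTiter-Glo) after 3-day incubation at 37 °C of H358 cells plated at 4,000/well in RPMI 1640 with 10% FBS. Values are either IC50 bins (A ≤1 μM through D >10 μM) or % of DMSO viability at 10 μM or 1 μM, bins A <10% through D ≥50%.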

H23 cells = test: Cell viability assay (CELLTITER-GLO), H23 cells; settings: Table 4; 3 days
Method in brief: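 Luminescent CellTiter-Glo readout after 3-day compound treatment (37° C, 5% CO2) of H23 cells plated at 4,000 cells/well in RPMI 1640 plus 10% FBS, DMSO as control. IC50 values given as categorical ranges.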

MOLM-13 cells = test: Cell viability assay (CELLTITER-GLO), MOLM-13 cells; settings: Homo sapiens, MOLM-13, 72 h; Table 2; compound at 10 μM, 3 days; read-out: Effect on MOLM-13 cell viability (% DMSO)
Method in brief: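 Viability, as % of DMSO control, was read by CellTiter-Glo luminescence after a 3-day compound exposure (single dose of 10 μM or 1 μM) at 37 °C. Cells plated at 4,000/well in RPMI 1640 with 10% FBS. Results reported as categories A <10%, B 10–<25%, C 25–<50%, D ≥50%.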

Row | SMILES | Inhibition of H358 cells, IC50 (class) (H358 cells) | Inhibition of H23 cells, IC50 (class) (H23 cells) | viability at 10 µM (MOLM-13 cells) [%]
1 | NC(=O)N1CCN(c2ncnc3c(F)c(-c4c(F)cccc4OCCCCCCCN4CCC(c5cc(F)cc6c5CN(C5CCC(=O)NC5=O)C6=O)CC4)c(Cl)cc23)CC1 (stereo not drawn) [Compound 83, 4-(6-Chloro-7-(2-((7-(4-(2-(2,6-dioxopiperidin-3-yl)-6-fluoro-1-oxoisoindolin-4-yl)piperidin-1-yl)heptyl)oxy)-6-fluorophenyl)-8-fluoroquinazolin-4-yl)piperazine-1-carboxamide] | B′ | B′ | < 10
2 | C=CC(=O)N1CCN(c2ncnc3c(F)c(-c4c(F)cccc4OCCCCCCCNCc4ccc(OCc5scc6c5CN([C@H]5CCC(=O)NC5=O)C6=O)cc4)c(Cl)cc23)CC1 [Compound 24, (3S)-3-(1-((4-(((7-(2-(4-(4-Acryloylpiperazin-1-yl)-6-chloro-8-fluoroquinazolin-7-yl)-3-fluorophenoxy)heptyl)amino)methyl)phenoxy)methyl)-4-oxo-4H-thieno[3,4-c]pyrrol-5(6H)-yl)piperidine-2,6-dione] | B′ | B′ | < 10
3 | C=C(Cl)C(=O)N1CCN(c2ncnc3c(F)c(-c4c(F)cccc4OCCCCCCCN4CCCC(c5cc6c(cc5F)C(=O)N(C5CCC(=O)NC5=O)C6)C4)c(Cl)cc23)CC1 (stereo not drawn) [Compound 119, 3-(5-(1-(7-(2-(6-Chloro-4-(4-(2-chloroacryloyl)piperazin-1-yl)-8-fluoroquinazolin-7-yl)-3-fluorophenoxy)heptyl)piperidin-3-yl)-6-fluoro-1-oxoisoindolin-2-yl)piperidine-2,6-dione] | B′ | A′ | < 10
4 | C=C(Cl)C(=O)N1CCN(c2nc(=O)n(-c3c(C)ccnc3C(C)C)c3nc(-c4c(F)cccc4OCCCCCCCN4CCC(c5cc(F)cc6c5CN(C5CCC(=O)NC5=O)C6=O)CC4)c(F)cc23)[C@@H](C)C1 (stereo partly drawn) [Compound 122, 3-(4-(1-(7-(2-(4-((S)-4-(2-Chloroacryloyl)-2-methylpiperazin-1-yl)-6-fluoro-1-(2-isopropyl-4-methylpyridin-3-yl)-2-oxo-1,2-dihydropyrido[2,3-d]pyrimidin-7-yl)-3-fluorophenoxy)heptyl)piperidin-4-yl)-6-fluoro-1-oxoisoindolin-2-yl)piperidine-2,6-dione] | A′ | A′ | < 10
5 | C=C(Cl)C(=O)N1CCN(c2ncnc3c(F)c(-c4c(F)cccc4OC[C@H]4CC[C@@H](CN5CCC(c6cc(F)cc7c6CN(C6CCC(=O)NC6=O)C7=O)CC5)CC4)c(Cl)cc23)CC1 (stereo partly drawn) [Compound 127, 3-(4-(1-(((1s,4s)-4-((2-(6-Chloro-4-(4-(2-chloroacryloyl)piperazin-1-yl)-8-fluoro-quinazolin-7-yl)-3-fluorophenoxy)methyl)cyclohexyl)methyl)piperidin-4-yl)-6-fluoro-1-oxoisoindolin-2-yl)piperidine-2,6-dione] | A′ | A′ | < 10
6 | CCC(=O)N1CC(N2Cc3ccc(-c4cc(O)cc5ccccc45)cc3N(CCCCCCCN3CCC(c4cc(F)cc5c4CN(C4CCC(=O)NC4=O)C5=O)CC3)C2=O)C1 (stereo not drawn) [Compound 44, 3-(6-Fluoro-4-(1-(7-(7-(3-hydroxynaphthalen-1-yl)-2-oxo-3-(1-propionylazetidin-3-yl)-3,4-dihydroquinazolin-1(2H)-yl)heptyl)piperidin-4-yl)-1-oxoisoindolin-2-yl)piperidine-2,6-dione] | C′ | B′ | < 10
7 | CCC(=O)N1CC(N2Cc3ccc(-c4cc(O)cc5ccccc45)cc3N(CCNCCCCCCCN3CCC(c4cc(F)cc5c4CN(C4CCC(=O)NC4=O)C5=O)CC3)C2=O)C1 (stereo not drawn) [Compound 46, 3-(6-Fluoro-4-(1-(7-((2-(7-(3-hydroxynaphthalen-1-yl)-2-oxo-3-(1-propionylazetidin-3-yl)-3,4-dihydroquinazolin-1(2H)-yl)ethyl)amino)heptyl)piperidin-4-yl)-1-oxoisoindolin-2-yl)piperidine-2,6-dione] | D′ | D′ | ≥ 50
8 | O=C1CCC(N2Cc3c(cc(F)cc3C3CCN(CCCCCCCOc4cccc(F)c4-c4c(Cl)cc5c(N6CCN(C(=O)c7cnc[nH]7)CC6)ncnc5c4F)CC3)C2=O)C(=O)N1 (stereo not drawn) [Compound 41, 3-(4-(1-(7-(2-(4-(4-(1H-Imidazole-5-carbonyl)piperazin-1-yl)-6-chloro-8-fluoroquinazolin-7-yl)-3-fluorophenoxy)heptyl)piperidin-4-yl)-6-fluoro-1-oxoisoindolin-2-yl)piperidine-2,6-dione] | B′ | B′ | < 10
9 | C=CC(=O)N1CC(N2Cc3ccc(-c4cc(O)cc5ccccc45)cc3N(CCOCCOCCNc3cccc4c3C(=O)N(C3CCC(=O)NC3=O)C4=O)C2=O)C1 (stereo not drawn) [Compound 45, 4-((2-(2-(2-(3-(1-Acryloylazetidin-3-yl)-7-(3-hydroxynaphthalen-1-yl)-2-oxo-3,4-dihydroquinazolin-1(2H)-yl)ethoxy)ethoxy)ethyl)amino)-2-(2,6-dioxopiperidin-3-yl)isoindoline-1,3-dione] | C′ | B′ | ≥ 50
10 | CCC(=O)N1CCN(c2ncnc3c(F)c(-c4c(F)cccc4OCCCCCCCCCN4CCC(c5cc(F)cc6c5CN(C5CCC(=O)NC5=O)C6=O)CC4)c(Cl)cc23)CC1 (stereo not drawn) [Compound 61, 3-(4-(1-(9-(2-(6-Chloro-8-fluoro-4-(4-propionylpiperazin-1-yl)quinazolin-7-yl)-3-fluorophenoxy)nonyl)piperidin-4-yl)-6-fluoro-1-oxoisoindolin-2-yl)piperidine-2,6-dione] | B′ | B′ | < 10
11 | CCC(=O)N1CCN(c2ncnc3c(F)c(-c4c(F)cccc4OCCCCCCC(=O)N[C@H](C(=O)N4C[C@H](O)C[C@H]4C(=O)NCc4ccc(-c5scnc5C)cc4)C(C)(C)C)c(Cl)cc23)CC1 [Compound 78, (2S,4R)-1-((2S)-2-(7-(2-(6-Chloro-8-fluoro-4-(4-propionylpiperazin-1-yl)quinazolin-7-yl)-3-fluorophenoxy)heptanamido)-3,3-dimethylbutanoyl)-4-hydroxy-N-(4-(4-methylthiazol-5-yl)benzyl)pyrrolidine-2-carboxamide] | B′ | C′ | < 10
12 | C=C(Cl)C(=O)N1CCN(c2ncnc3c(F)c(-c4c(F)cccc4OCCCCCCCCCCCN4CCC(c5cc(F)cc6c5CN(C5CCC(=O)NC5=O)C6=O)CC4)c(Cl)cc23)CC1 (stereo not drawn) [Compound 114, 3-(4-(1-(11-(2-(6-Chloro-4-(4-(2-chloroacryloyl)piperazin-1-yl)-8-fluoroquinazolin-7-yl)-3-fluorophenoxy)undecyl)piperidin-4-yl)-6-fluoro-1-oxoisoindolin-2-yl)piperidine-2,6-dione] | B′ | B′ | < 10
